# Data: patent US20240209001A1, “HETEROCYCLIC DERIVATIVES AS JANUS KINASE INHIBITORS” (CHIESI FARMACEUTICI S.P. A., priority 2021, published 2024)
# How the values were obtained:
# JAK 1 = JAK 1 (Homo sapiens (Human), UniProt P23458); assay: Biochemical potency JAK1, TR-FRET LANCE Ultra kinase assay (examples 1a-10a); settings: ATP corresponding to Km
# Excerpt: Pharmacological Activity of the Compounds of the Invention (1a-10a).
# The objective of this study was to assess the activity of novel JAK inhibitors measuring the capability of compounds to inhibit JAK1 kinase activity in a biochemical time-resolved fluorescence resonance energy transfer (TR-FRET) LANCE assay. In LANCE Ultra kinase assay in the presence of JAK1 kinase and ATP (corresponding to Km), the ULight peptide substrate (LANCE Ulight-JAK-1 (Tyr1023) Peptide, Perkin Elmer, TRF0121) was phosphorylated. It was then captured by a Eu-anti-phospho-substrate antibody (LANCE Eu-W1024 Anti-phosphotyrosine (PT66), Perkin Elmer, AD0069), which brought the Eu-chelate donor and ULight acceptor dyes into close proximity. Upon excitation at 320 nm, the Eu-chelate transfers its energy to the ULight dye, resulting in a fluorescent light emission at 665 nm. Inhibitors were tested at 11 consecutive 5-fold dilutions starting from 30 μM (30 μM-[…]) in duplicate. Calculation of IC50 data, curves and QC analysis were made using Excel tools and GraphPadPrism software. QC criteria parameters: Z′≥0.5, Hill Slope range 0.5 to 5, S:B>2.
# [1] = tested on: IL-2 induced phosphorylation of STAT5 (JAK1/JAK3 activity) in human peripheral blood mononuclear cells (PBMCs); assay: Cell based assay PBMC (IL-2 stimulated pSTAT5); settings: 0.5 h, rh IL-2, 30 min incubation, pSTAT5 ELISA, read-out: Cell Based assay PBMC (IL-2 stimulated pSTAT5), data displayed as pIC50 (converted)
# Description: In addition to enzymatic potency, the effects of the inhibitors against JAK1/JAK3 activity in a cellular assay was characterized against IL-2 induced phosphorylation of STAT5 level in human peripheral blood mononuclear cells (PBMCs).
# PBMC have been isolated from human healthy volunteers. Cells were seeded in wells and treated with compounds and rh IL-2. After 30 min incubation cells were lysed and pSTAT5 determined by PathScan phospho-stat5 (Tyr694) ELISA (Cell signaling). Inhibitors were tested at 11 consecutive 5-fold dilutions starting from 30 μM (30 μM-[…]) in duplicate. Calculation of IC50 data, curves and QC analysis were made using Excel tools and GraphPadPrism software. QC criteria parameters: Z′≥0.35, Hill Slope range 0.5 to 5, S:B>2.
# Sequence of JAK 1 (P23458 whole entry): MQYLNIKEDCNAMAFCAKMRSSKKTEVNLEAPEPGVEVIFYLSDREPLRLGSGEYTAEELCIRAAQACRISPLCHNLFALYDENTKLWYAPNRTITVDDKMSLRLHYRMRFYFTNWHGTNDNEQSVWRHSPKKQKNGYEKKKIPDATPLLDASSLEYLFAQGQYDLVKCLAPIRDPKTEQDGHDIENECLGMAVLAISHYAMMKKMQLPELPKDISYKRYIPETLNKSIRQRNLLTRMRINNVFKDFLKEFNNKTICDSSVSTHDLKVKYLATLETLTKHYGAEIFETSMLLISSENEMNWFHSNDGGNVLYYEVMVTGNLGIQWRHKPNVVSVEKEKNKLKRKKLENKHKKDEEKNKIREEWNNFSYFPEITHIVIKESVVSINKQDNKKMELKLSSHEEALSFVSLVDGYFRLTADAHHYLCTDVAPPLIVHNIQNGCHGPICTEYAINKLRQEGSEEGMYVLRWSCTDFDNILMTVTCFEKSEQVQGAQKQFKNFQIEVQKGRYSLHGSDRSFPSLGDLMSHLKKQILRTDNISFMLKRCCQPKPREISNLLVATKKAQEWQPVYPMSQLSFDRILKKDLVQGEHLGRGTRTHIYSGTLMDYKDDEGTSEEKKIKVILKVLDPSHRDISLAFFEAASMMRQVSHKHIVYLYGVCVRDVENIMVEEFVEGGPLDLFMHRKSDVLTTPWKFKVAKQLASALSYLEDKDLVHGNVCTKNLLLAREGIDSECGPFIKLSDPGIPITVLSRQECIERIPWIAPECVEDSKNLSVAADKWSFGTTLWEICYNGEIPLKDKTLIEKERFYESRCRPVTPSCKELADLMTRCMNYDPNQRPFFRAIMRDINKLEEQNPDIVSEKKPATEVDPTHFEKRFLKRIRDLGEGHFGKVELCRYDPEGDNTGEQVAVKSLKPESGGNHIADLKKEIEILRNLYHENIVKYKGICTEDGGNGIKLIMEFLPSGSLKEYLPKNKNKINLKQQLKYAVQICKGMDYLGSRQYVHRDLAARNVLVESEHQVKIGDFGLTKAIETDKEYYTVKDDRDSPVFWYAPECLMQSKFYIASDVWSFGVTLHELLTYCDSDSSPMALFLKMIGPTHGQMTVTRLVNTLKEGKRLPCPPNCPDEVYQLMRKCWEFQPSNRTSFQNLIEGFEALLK
Structure (SMILES),Biochemical Potency JAK 1 (pIC50) (JAK 1),IC50 [1]
"O=C(O)Cc1nn(-c2cc(Cl)ccc2OC(F)F)c2cc(-c3cnn4cccnc34)cnc12 [Example 5a, 2-(1-(5-chloro-2-(difluoromethoxy)phenyl)-6-(pyrazolo[1,5-a]pyrimidin-3-yl)-1H-pyrazolo[4,3-b]pyridin-3-yl)acetic acid]",7.7,6310 nM
"Cc1nn(-c2cc(Cl)ccc2OC(F)F)c2cc(-c3cnn4cccnc34)ncc12 [Example 7a, 1-(5-chloro-2-(difluoromethoxy)phenyl)-3-methyl-6-(pyrazolo[1,5-a]pyrimidin-3-yl)-1H-pyrazolo[4,3-c]pyridine]",8.5,39.8 nM
"Cc1nn(Cc2ccc(Cl)cc2F)c2cc(-c3cnc4cccnn34)cnc12 [Example 8a, 1-(4-chloro-2-fluorobenzyl)-6-(imidazo[1,2-b]pyridazin-3-yl)-3-methyl-1H-pyrazolo[4,3-b]pyridine]",6.7,794 nM
"Cc1nn(-c2cc(Cl)ccc2OC(F)F)c2cc(-c3cnn4cccnc34)cnc12 [Example 9a, 1-(5-chloro-2-(difluoromethoxy)phenyl)-3-methyl-6-(pyrazolo[1,5-a]pyrimidin-3-yl)-1H-pyrazolo[4,3-b]pyridine]",7.8,50.1 nM
"Cc1nn(C2CCCN(C(=O)CC#N)C2)c2cc(-c3cnn4cccnc34)cnc12 (stereo not shown) [Example 10a, 3-(3-(3-methyl-6-(pyrazolo[1,5-a]pyrimidin-3-yl)-1H-pyrazolo[4,3-b]pyridin-1-yl)piperidin-1-yl)-3-oxopropanenitrile]",6.0,6310 nM
